Patent US10889825B2, “Compositions and methods thereof for down-regulation of genes following oral delivery of an RNAi molecule bioencapsulated within plant cells” (THE TRUSTEES OF THE UNIVERSITY OF PENNSYLVANIA, priority 2015, dated 2021)

Test system: Helicoverpa armigera
Assay: gossypol tolerance test, larvae on artificial diet supplemented with gossypol
Format: in vivo
Details: third-instar larvae
Protocol: Cotton bollworm (Helicoverpa armigera) eggs were purchased from Benzon research laboratory. See the world wide web at benzonresearch.com/insectlist.htm. They were hatched at 25° C. and all the larvae were fed with the artificial diet (Southland Products Incorporated on the world wide web at tecinfo.com/˜southland/. All dishes were kept at 25° C. on a 14-h-day/10-h-night cycle. For the gossypol tolerance experiments, third instars larvae were transferred to the artificial diet supplemented with gossypol (0-4 mg) for 4 d and the increase in weight was recorded.
Gossypol and related sesquiterpene biosynthesized in cotton are toxic to many organisms. However, most Helicoverpa insects resist gossypol because the P450 monooxygenases in the midgut of these insects permit them to tolerate the gossypol. Therefore, in order to suppress P450 gene, two step insect bioassay was conducted. In the first step, third-instar larvae of Helicoverpa armigera were fed on P450: RNAi expressed leaves for four days. Then, all these larvae were transferred to the following diet or leaves: artificial diet with 3 mg/g gossypol or without gossypol; cotton leaves with glands/glandless and wild-type tobacco leaves. Addition of gossypol in the artificial diet or in leaves affects the growth and development of the larvae (FIG. 3). […]

Cc1cc2c(C(C)C)c(O)c(O)c(C=O)c2c(O)c1-c1c(C)cc2c(C(C)C)c(O)c(O)c(C=O)c2c1O [gossypol]
net weight increase of larvae (higher concentrations (3-4 mg/g) of gossypol diet): 15.1 to 55.4 mg
weight increases of larvae (low concentration gossypol diet (1-2 mg/g)): 163 to 190 mg
